One assay has as its target T1, NF-κB p65 (Homo sapiens, UniProt Q04206).
T1 construct: purchased Active Motif
Description: TransAM NF-κB Family DNA Binding ELISA, p65. Here is the method: The binding activity of NF-κB heterodimer or homodimer subunits from activated nuclear extracts or purified recombinant NF-κB proteins exposed to the drug compounds was evaluated using the TransAM NF-κB Family binding ELISA (Active Motif). Approximately 3-5 μg of nuclear extracts from TNFα activated Hela or Raji cells (Active Motif) or 20 ng of purified recombinant proteins (p65 and p50 from Active Motif, p52 from Santa Cruz) were incubated for 1 hour at room temperature with 20 μL drug compounds diluted in Complete Lysis buffer without DTT. Treated samples were then transferred to 30 μL Complete Binding Buffer (with DTT) in microplate wells pre-coated with the NF-κB consensus oligonucleotide. […] The plate was incubated for 1 hour at room temperature with gentle shaking and then washed 3 times with 200 μL 1× Wash Buffer. NF-κB p65, p50, p52, RelB, or c-Rel subunits bound to the plate were detected with 100 μL of the primary antibody (diluted 1:1000 in 1× Antibody Buffer) specific for that subunit. The plate was incubated for 1 hour at room temperature and then washed 3 times with 200 μL 1× Wash Buffer. Next, 100 μL of a HRP conjugated goat anti-rabbit antibody (diluted 1:1,000 in 1× Antibody Buffer) was added to each well. The plate was incubated for 1 hour at room temperature and then washed 4 times with 200 μL 1× Wash Buffer. 100 μL of room temperature Developing Solution was added to each well. The reaction was allowed to develop for 2-10 minutes until a medium dark blue color developed (depending on the subunit activity in the lot of extract or lot of recombinant protein used) and then the reaction was stopped with 100 μL Stop Solution yielding a yellow color. Absorbance was recorded using a Becton-Dickinson DTX 880 Multimode Detector at 450 nm with a reference wavelength subtracted at 620 nm.
Background: In an ELISA, binding on a coated surface is turned into a signal by an enzyme label.

Assay [1] has as its system NF-κB driven transcription (pNF-κB-luc reporter, 293 cells). As to the kind of experiment: 293/NF-kB-luc reporter cell assay. In kind it is cell-based. The conditions noted are these: Homo sapiens; compound 2 hours, then 20 ng/ml TNF-α for 18 hours; luminescence. Here is the method: (§1) Two reporter cell assays were used to determine the ability of the compounds of Examples 1-12 to inhibit NF-κB driven transcription. The first assay was a 293-cell based assay with a stably integrated pNF-κB-luc reporter plasmid containing 3 NF-κB promoter elements. The second assay was a 293-cell based assay with a stably integrated pTRH1-NF-κB-dscGFP reporter containing 4 NF-κB promoter elements. Cells were treated with 0, 0.2, 1, 10, 20 and 40 μM of the compounds of Example 1-12 for 2 hours then were induced with 20 ng/ml TNF-α for 18 hours. Following the induction, luminescence or fluorescence was quantified using a Beckman-Coulter 2300 plate reader. […] As a control, 0.5% DMSO treated and untreated cells were compared to verify that the compounds of Examples 1-12 had no effect on the expression of luciferase or in the readout of the assay. There was a slight decrease in the output from the assay in the DMSO treated population although it was not statistically significant. As a result of the controls, the decrease in activity in the drug treated samples was compared to the DMSO control sample.

In a further assay the test system is IL-6. As to the kind of experiment: Inhibition of IL-6 release in LPS-stimulated RAW 264.7 cells. The conditions noted are these: Mus musculus, RAW264.7; pretreated 2 hours, 1 μg/mL LPS 20-24 hours. The format is cell-based. As to the method: RAW 264.7 cells were seeded at 4×10^4 cells per well in complete growth medium in 96 well white TC plates with clear bottoms one day prior to the assay. The next day the cells were washed once and 100 μL fresh growth media was added. Cells were pretreated with 0.5 μL from a 6 point 200× dilution series of the test compounds in DMSO for 2 hours. Following pretreatment with the drugs, the inflammatory response was induced by adding 5 μL of a 20 μg/mL solution of LPS (Sigma). The cells were incubated in the presence of the drugs and 1 μg/mL LPS for another 20-24 hours. Typically after treatment the total DMSO was […] of the culture volume and the final concentrations of the compounds were approximately: 40, 20, 10, 1, 0.2 and 0 μM depending on the MW of each compound. Modified dilution series were prepared as needed to get adequate dose response curves without changing the % DMSO. Samples were run in duplicate or triplicate and included DMSO treated control wells with and without LPS stimulation. Drugs with a known activity such as Parthenolide or DHMEQ were run as experimental controls. After 20-24 hours LPS activation, the media supernatant was collected from the cells and replaced with fresh media. The supernatant samples were cleared by centrifugation at 1,000×g for 5 minutes, transferred to fresh storage plates, and stored frozen at −30° C.
After determining the appropriate supernatant dilutions experimentally, mIL-6 levels in the supernatants were quantified using Quantikine™ mouse IL-6 Immunoassay (R&D Systems) according to the manufacturer's protocol. Approximately 50 μL of the supernatants diluted in Calibrator Diluent were added to 50 μL of Assay Diluent in microplate wells pre-coated with an anti-mouse IL-6 capture antibody. Controls included a calibrated positive IL-6 control sample, non-specific binding (NSB) wells containing Calibrator Diluent but no IL-6, and a recombinant mouse IL-6 standard dilution series (10-1000 pg/mL). The plates were incubated at room temperature for 2 hours with shaking and then washed 5 times with 400 μL 1× Wash Buffer. Approximately 100 μL of an HRP-conjugated anti-mouse IL-6 antibody was added to each well to detect IL-6 captured on the plate. The plates were incubated at room temperature for 2 hours and then washed 5 times with 400 μl 1× Wash Buffer. Equal volumes of Color Reagents A and B were mixed and 100 μL of this HRP Substrate Solution was added to each well on the plate. The blue color was allowed to develop for 30 minutes and then the reaction was stopped using 100 μL of Stop Solution yielding a yellow color. Absorbance at 450 nm with a reference wavelength subtracted at 595 nm was recorded using a Becton-Dickinson DTX 880 Multimode Detector.
The concentration of mIL-6 in the unknown samples was determined from a curve-fit of the mIL-6 standard absorbance data and multiplying by the dilution factor. The maximum activity achieved in the absence of the inhibitor (DMSO+LPS treated wells) was arbitrarily given a value of 100%; likewise the minimum activity in the absence of the stimulant (no LPS) was assigned a value of 0% Inhibition of the amount of mIL-6 cytokine released in the drug treated wells was calculated relative to the maximum activation in the DMSO+LPS treated control wells (i.e., % inhibition=100−(drug+LPS treated)/(DMSO+LPS treated)). Dose response curves were used to determine the effective concentration to inhibit 50% of the mIL-6 cytokine released (IC50) by means of a SigmaPlot macro which fits a sigmoidal dose-response curve to the (log 10) μM concentration versus % inhibition. […] This technique yields an objective value for the IC50 provided that 50% inhibition was approached at the concentrations tested.

Assay [2] deals with NF-κB driven transcription (pTRH1-NF-κB-dscGFP reporter, 293 cells). As to the kind of experiment: NF-kB/293/GFP reporter cell assay. In kind it is cell-based. The conditions noted are these: Homo sapiens, HEK293; compound 2 hours, then 20 ng/ml TNF-α for 18 hours; fluorescence. Here is the method:
as §1

[3] abbreviates: binding to NF-κB consensus oligonucleotide, read-out: p65 binding IC50.

Molecules are shown by their SMILES. Where two headings read alike, the source gives them in different places.

T1 sequence (Q04206 whole entry): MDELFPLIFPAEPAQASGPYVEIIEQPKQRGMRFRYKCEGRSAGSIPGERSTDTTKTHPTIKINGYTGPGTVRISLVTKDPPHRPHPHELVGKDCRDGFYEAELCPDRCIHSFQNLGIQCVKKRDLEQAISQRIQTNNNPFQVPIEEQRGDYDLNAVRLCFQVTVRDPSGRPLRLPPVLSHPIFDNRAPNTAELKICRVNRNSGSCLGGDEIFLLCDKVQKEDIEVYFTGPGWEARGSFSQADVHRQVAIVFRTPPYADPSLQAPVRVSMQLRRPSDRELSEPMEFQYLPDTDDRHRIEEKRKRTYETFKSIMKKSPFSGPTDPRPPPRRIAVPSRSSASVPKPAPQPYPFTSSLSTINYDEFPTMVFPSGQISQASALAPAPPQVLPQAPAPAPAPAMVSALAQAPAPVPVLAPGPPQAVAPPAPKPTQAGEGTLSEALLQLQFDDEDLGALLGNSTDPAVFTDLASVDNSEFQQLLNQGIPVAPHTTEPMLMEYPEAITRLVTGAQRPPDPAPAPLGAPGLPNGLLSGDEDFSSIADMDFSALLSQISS

As usually defined, the IC50 is the concentration that inhibits the measured activity by half. What is called EC50 is the concentration giving half of the maximal effect. As to `CC(C)(C)CC(=O)Oc1ccccc1C(=O)NC1=CC(=O)C2OC2C1OC(=O)CC(C)(C)C` (racemic) [Example 9, (±)-2-(2-(3,3-dimethylbutanoyloxy)-5-oxo-7-oxabicyclo[4.1.0]hept-3-en-3-ylcarbamoyl)phenyl 3,3-dimethylbutanoate], the IC50 at NF-κB p65 (setting [3]) amounted to 116 µM. Further, the EC50 is 15 µM in assay [1], 1.4 µM in the assay with IL-6 and 16 µM in assay [2].
The compound `CCOP(=O)(OCC)Oc1ccccc1C(=O)NC1=CC(=O)C2OC2C1O` (racemic) [Example 10, (±)-diethyl 2-(2-hydroxy-5-oxo-7-oxabicyclo[4.1.0]hept-3-en-3-ylcarbamoyl)phenyl phosphate] yielded an IC50 at NF-κB p65 of 59 µM. Moreover, the results for the EC50 (in assay [1]; with IL-6; in assay [2]) were 24 µM, 6 µM and 13 µM, respectively.
With `O=C(Nc1ccccc1)OC1C(NC(=O)c2ccccc2O)=CC(=O)C2OC21` (racemic) [Example 11, (±)-3-(2-hydroxybenzamido)-5-oxo-7-oxabicyclo[4.1.0]hept-3-en-2-yl phenylcarbamate], the IC50 on NF-κB p65 (setting [3]) was determined as 7.3 µM. Further, the EC50 in assay [1] is 3.3 µM; with IL-6 it was 0.87 µM; in assay [2] it was 4.3 µM.
Take `O=C(NC1=CC(=O)C2OC2C1O)c1ccccc1OP(=O)(OCc1ccccc1)OCc1ccccc1` (racemic) [Example 12, (±)-dibenzyl 2-(2-hydroxy-5-oxo-7-oxabicyclo[4.1.0]hept-3-en-3-ylcarbamoyl)phenyl phosphate]: on NF-κB p65 (setting [3]), the IC50 was > 320 µM. Also, the EC50 (in assay [1]; with IL-6; in assay [2]) was > 26 µM throughout.
